{"source": "patent US12226410B2", "about": "“Methods for enhancing cellular clearance of pathological molecules via activation of the cellular protein ykt6” (NORTHWESTERN UNIVERSITY, priority 2019, dated 2025)", "key": {"ykt6 SNARE complexes": {"system": "ykt6 SNARE complexes", "experiment": "Co-IP of GFP-ykt6 SNARE complexes under lysosomal stress", "type": "cell-based, human", "protocol": "FIGS. 3A, 3B, 3C, 3D, 3E, 3F, 3G, 3H, 3I, 3J, and 3K. Ykt6 is activated in response to lysosomal stress. 3A) Ykt6 membrane shift analysis in bafA1 (200 nM, 2 hrs) or NH4Cl (1M, 12 hrs) treated iPSn (d60). CBB, coomassie brilliant blue, (BafA1 and NH4Cl are indicated, n=7-10). 3B) Co-IP of GFP-ykt6 and bet1 in control iPSn (d60) treated with bafA1 (n=3). 3C) Ykt6 and GM130 immunofluorescence analysis of bafA1-treated H4 cells (n=9). Scale bars=10 um. 3D) Ykt6 membrane shift analysis in CBE-treated SH-SY5Y cells (50 μM, 2d, n=3). 3E) Co-IP of GFP-ykt6, bet1 and STX5 in CBE-treated SHSY5Y cells (n=5). 3F) Ykt6 membrane shift analysis in control or Gaucher disease (GD) iPSn (d100). a-Syn was knocked-out (SNCA KO) in GD lines by CRISPR/Cas9. Two exposures are included to better visualize cyt and mem ykt6 (n=4). 3G) Ykt6 membrane shift analysis in lenti-infected SH-SY5Y cells (moi3, dpi 10) (n=3). C, cytosolic; N, nuclear. 3H) GCase maturation was assessed by endo H digest in lenti-infected SH-SY5Y cells. […] 3I) Control iPSn were infected as in 3H and analyzed for GCase maturation (n=3). […]\nTo co-IP ykt6 SNARE assemblies, approximately 106-107 cells expressing GFP-tagged YKT6, were harvested in 1 ml of PBS, scraped off the plate and transferred to centrifuge tubes. […] Eluates were analyzed by western blot as described below. The samples were not analyzed in a blinded manner."}, "ykt6 [1]": {"system": "ykt6", "experiment": "Ykt6 membrane shift analysis under lysosomal stress", "type": "cell-based, human", "protocol": "FIGS. 3A, 3B, 3C, 3D, 3E, 3F, 3G, 3H, 3I, 3J, and 3K. Ykt6 is activated in response to lysosomal stress. 3A) Ykt6 membrane shift analysis in bafA1 (200 nM, 2 hrs) or NH4Cl (1M, 12 hrs) treated iPSn (d60). CBB, coomassie brilliant blue, (BafA1 and NH4Cl are indicated, n=7-10). 3B) Co-IP of GFP-ykt6 and bet1 in control iPSn (d60) treated with bafA1 (n=3). 3C) Ykt6 and GM130 immunofluorescence analysis of bafA1-treated H4 cells (n=9). Scale bars=10 um. 3D) Ykt6 membrane shift analysis in CBE-treated SH-SY5Y cells (50 μM, 2d, n=3). 3E) Co-IP of GFP-ykt6, bet1 and STX5 in CBE-treated SHSY5Y cells (n=5). 3F) Ykt6 membrane shift analysis in control or Gaucher disease (GD) iPSn (d100). a-Syn was knocked-out (SNCA KO) in GD lines by CRISPR/Cas9. Two exposures are included to better visualize cyt and mem ykt6 (n=4). 3G) Ykt6 membrane shift analysis in lenti-infected SH-SY5Y cells (moi3, dpi 10) (n=3). C, cytosolic; N, nuclear. 3H) GCase maturation was assessed by endo H digest in lenti-infected SH-SY5Y cells. Empty vector (vect), scrambled (scrb). 3I) Control iPSn were infected as in 3H and analyzed for GCase maturation (n=3). 3J) Live cell GCase activity in lenti-infected iPSn (n=4). 3K) Lysosomal mass measurement in control iPSn (n=4). Values are the mean+/−SEM, *p<0.05.\nFIGS. 12A, 12B, 12C, 12D, 12E, and 12F. The effects of ykt6 knock-down on the lysosomal system and characterization of GD-SNCA KO iPSCs. […] 12B) Protein secretion was measured by radioactive pulse-chase from the same culture wells that correspond to proteolysis data of FIG. 2H. 12C) Control iPSn were treated with 50 mM sucrose for 7 days followed by membrane shift analysis of ykt6. 12D) Control iPSn were infected with scrambled (S) or ykt6 shRNA (KD) and treated with or without sucrose as done in panel B. LAMP1 levels were analyzed by western blot. GAPDH is a loading control (n=4). 12E) Cultures were treated as described in panel C, and analyzed for GCase maturation by western blot analysis (n=4). For all quantifications, values are the mean+/−SEM, *p<0.05. 12F) Analysis of off-target edits by CRISPR/Cas9 in SNCA knock out (KO) Gaucher disease iPSCs. The targeting strategy has been previously published (Zunke et al., 2018). Genomic sequences showing the closest homology to SNCA were analyzed for mis-matched mutations by T7 digestion, and compared to the parental GD line. PCR amplicons were analyzed by agarose gel electrophoresis stained with ethidium bromide. For all quantifications, values are the mean+/−SEM, *p<0.05. Student's T-test was used in panel 12A, while ANOVA with Tukey's post-hoc test was used in panels 12D and 12E.\nSeparation of lysates into cytosol and membrane fractions. […]"}, "ykt6 [2]": {"target": "T1, ykt6 (Homo sapiens, UniProt O15498)", "T1 construct": "expressed in transfected cells", "T1 sequence (O15498 1-198)": "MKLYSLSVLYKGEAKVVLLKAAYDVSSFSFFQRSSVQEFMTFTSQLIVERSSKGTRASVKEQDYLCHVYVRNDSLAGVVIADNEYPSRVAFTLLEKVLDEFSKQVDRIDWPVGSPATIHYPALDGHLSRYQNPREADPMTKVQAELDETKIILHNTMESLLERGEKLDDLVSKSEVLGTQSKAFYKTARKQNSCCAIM", "experiment": "GFP-ykt6 / GM130 colocalization in Hela cells", "type": "cell-based", "conditions": "Hela cells stably expressing GFP-ykt6; 2 days, various concentrations", "protocol": "FIG. 19. […] A) Hela cells stably expressing GFP-ykt6 (green) were treated with #20 for 2 days at various concentrations, fixed, stained with Golgi marker GM130 (red), and colocalization was quantified by Pearson's correlation. Each plot represents an individual cell, from 3 culture wells. LNK-754 was used at 10 nM. B) Stable transfected Hela cells were incubated as in A followed by biochemical fractionation/western blot to detect cytosolic (cyt) or membrane (mem) ykt6. The assay was repeated 3 times, representative blot shown.\nWe tested the activity of Compound #20 ((3R)-1-[(1-{[1-(4,5-dimethylthiophene-2-carbonyl)piperidin-4-yl]methyl}-1H-1,2,3-triazol-4-yl)methyl]pyrrolidin-3-amine) regarding activation of ykt6 in Hela cells. (See FIG. 19). Hela cells stably expressing GFP-ykt6 were treated with Compound #20 for 2 days at various concentrations, fixed, stained with Golgi marker GM130, and colocalization was quantified by Pearson's correlation."}, "[3]": {"target": "T2, ykt6 SNARE binding (STX5) (Homo sapiens, UniProt O15498)", "T2 construct": "expressed in transfected cells", "T2 sequence (O15498 1-195 limits assumed)": "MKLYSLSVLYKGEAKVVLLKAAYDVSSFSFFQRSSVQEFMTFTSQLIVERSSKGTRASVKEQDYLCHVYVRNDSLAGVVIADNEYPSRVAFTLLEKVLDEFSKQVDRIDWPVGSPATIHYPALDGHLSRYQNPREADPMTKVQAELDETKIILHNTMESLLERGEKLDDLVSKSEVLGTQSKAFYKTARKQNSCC", "experiment": "Co-IP of GFP-ykt6 and STX5 in Hela cells", "type": "cell-based", "conditions": "Hela cells stably expressing GFP-ykt6; 2 days"}}, "note": "Entries after “also recorded” stand apart in the source; their conditions may differ."}
{"compound": "O[C@H]1[C@H](O)[C@@H](O)[C@@H]2O[C@@H]2[C@@H]1O", "note": "[CBE]", "values": [{"measurement": "ykt6 SNARE complexes (co-IP GFP-ykt6, bet1 and STX5)", "setting": "ykt6 SNARE complexes; SHSY5Y cells", "result": "increased ykt6 SNARE complexes"}, {"measurement": "ykt6 cytosol/membrane distribution", "setting": "ykt6 [1]; SH-SY5Y cells, 50 μM, 2d", "result": "caused ykt6 to shift into membranes"}]}
{"compound": "CO/C1=C\\C(C)=C\\[C@@H](C)[C@@H](O)[C@@H](C)C/C(C)=C/C=C/[C@H](OC)[C@@H]([C@@H](C)[C@@H](O)[C@H](C)[C@@]2(O)C[C@@H](O)[C@H](C)[C@@H](C(C)C)O2)OC1=O", "note": "[bafilomycin A1]", "values": [{"measurement": "assembly of ykt6 ER-Golgi SNARE complexes (co-IP GFP-ykt6 and bet1)", "setting": "ykt6 SNARE complexes; control iPSn (d60)", "result": "promoted the assembly of ykt6 ER-Golgi SNARE complexes"}, {"measurement": "ykt6 cytosol/membrane distribution", "setting": "ykt6 [1]; healthy control iPSn (d60), 200 nM, 2 hrs", "result": "caused a shift of ykt6 from the cytosol into membrane fractions"}]}
{"compound": "Cl.N", "note": "[NH4Cl]", "values": [{"measurement": "ykt6 cytosol/membrane distribution", "setting": "ykt6 [1]; healthy control iPSn (d60), 1M, 12 hrs", "result": "caused a shift of ykt6 from the cytosol into membrane fractions"}]}
{"compound": "OC[C@H]1O[C@@](CO)(O[C@H]2O[C@H](CO)[C@@H](O)[C@H](O)[C@H]2O)[C@@H](O)[C@@H]1O", "note": "[sucrose]", "values": [{"measurement": "ykt6 cytosol/membrane distribution", "setting": "ykt6 [1]; control iPSn, 50 mM, 7 days", "result": "caused ykt6 to shift into membranes"}]}
{"compound": "Cc1cc(C(=O)N2CCC(Cn3cc(CN4CC[C@@H](N)C4)nn3)CC2)sc1C", "note": "[Compound #20, (3R)-1-[(1-{[1-(4,5-dimethylthiophene-2-carbonyl)piperidin-4-yl]methyl}-1H-1,2,3-triazol-4-yl)methyl]pyrrolidin-3-amine]", "values": [{"measurement": "ykt6 activity (GFP-ykt6 colocalization with GM130, Pearson's correlation)", "setting": "ykt6 [2]", "result": "can activate ykt6; also recorded: increases ykt6 activity"}, {"measurement": "SNARE binding (STX5 co-IP)", "setting": "[3]", "result": "increases SNARE binding"}]}
